Where “and” joins values, the source holds several entries; their conditions need not be identical. Identical values can stand only once. Like-named read-outs stand apart in the source and are kept apart here. Marks after values point to notes of the source that are not given here.
Assays:
[1] = tested on: rat whole embryo culture; parameters: method as in PMID 22652462; details: ref 16; cited from earlier work
[2] = tested on: rat embryos explanted at GD 9.5; assay: Postimplantation whole embryo culture (postWEC); parameters: species or system Sprague Dawley rats; key to Yolk sac circulation (median): 1 = few/abnormal vessels, 2 = delayed, 3 = complete vascularization; key to Morphological score: sum of structure scores; higher = more advanced differentiation; details: for Crown-rump length / Dysmorphogenic embryos / Morphological score / Somites number / Yolk sac circulation (median): 48 h; for postWEC LOAEC: GD 9.5-11.5, 48 h
Procedure: Nulliparous female rats, which were checked to be in the oestrus phase of the oestrous cycle, were housed with adult males (1:1) for 4 h, considering 2 h of light and 2 h of darkness. Mating was confirmed by the presence of sperm in vaginal smear, and the following 24 h were considered as gestational day 0 (GD 0).
Rat embryos were explanted and evaluated as described before with some variations. Briefly, embryos were explanted at GD 9.5 under sterile conditions. Two embryos were incorporated in flasks filled with 3.5 mL of culture medium which contained 20% of rat serum and 80% of serum mixture (Biochrom AG; Berlin, Germany). TCBZ, TCBZSO, ABZ and ABZSO were dissolved in dimethyl sulfoxide (DMSO; Sigma Aldrich Spain) and added to the culture medium to a final DMSO concentration of 0.1%. Culture flasks were oxygenated at the beginning of the culture with a gas mixture containing 12% O2 and after 38 h with a gas mixture containing 50% O2. Embryos were cultured at a temperature of 38°C, under rotation at a speed of 25 rpm (Noria R, Ovan Spain) for 48 h. After this period, embryos presenting yolk sac circulation and heartbeat were considered alive and were selected for further evaluation. The yolk sac circulation was evaluated according to the level of formation of blood vessels, giving a score of 1 in the cases in which few vessels were observed or the vascularization was abnormal, a score of 2 when a delay in vascularization was observed and 3 for complete vascularization, as previously described in [35]. Growth evaluation was assessed by crown-rump length and differentiation was evaluated by counting the number of somites and the morphological score. This score is the sum of the scores given to several embryonic structures depending on their differentiation stage, corresponding higher values with higher stages of differentiation. Furthermore, the percentage of dysmorphogenesis was calculated according to [36].
For the postWEC experiments, the selected concentrations were 140 μM, 278 μM and 556 μM for TCBZ and 267 μM, 666 μM and 932 μM for TCBZSO. The tested concentrations for ABZ analysis were 0.4 μM, 1.1 μM and 1.9 μM and for ABZSO were 3.4 μM, 9 μM, 12 μM, 14 μM and 16 μM.

[3] = cited from earlier work
[4] = tested on: zebrafish embryos; assay: Zebrafish embryo test (ZFET); type: in vivo, Danio rerio; details: for Lethality / ZFET LOAEC dysmorphogenesis / ZFET LOAEC lethality: 2-50 hpf; for Dysmorphogenic embryos / Morphological score: 50 hpf
Procedure: The day before the test, adult male and female zebrafish were transferred (1:1) to breeding tanks (Aquaneering, San Diego, California). Artificial plants and marbles were used as spawning substrate. Spawning and fertilization took place within 30 min after the onset of light in the morning. Eggs were collected and extensively cleaned with ISO-standard 7346 water diluted 1:5 using deionized water. Fertilized eggs were selected under a dissection stereomicroscope (Motic SMZ168, Motic China group, LTD., China). The eggs presenting overt anomalies like asymmetries, formation of vesicles or damaged membranes were discarded.
Exposure and evaluation of eggs was performed as described before with slight variations. At 2 hours post-fertilization (hpf) fertilized eggs were selected and transferred to 6-well plates (Greiner Bio-one, Germany). Ten embryos were randomly distributed into wells and filled with 5 mL of freshly prepared test solutions. TCBZ, TCBZSO, ABZ and ABZSO were dissolved in DMSO and subsequently diluted in 0.3x Danieau’s buffer to a final DMSO concentration of 0.05% (v/v). Embryos were incubated at 26 ± 1°C with a dark-light cycle of 10–14 h for 48 h. Embryolethality was determined at 8 hpf on the basis of egg coagulation, at 26 hpf by the absence of tail detachment or somites formation, and at 50 hpf by the absence of heartbeat. Developmental and teratogenic effects were assessed at 50 hpf by the total morphological score described in [32].
The working concentrations for ZFET experiments were 0.1 μM, 0.5 μM, 1 μM, 2.5 μM and 5 μM for TCBZ studies and 0.5 μM, 1 μM, 2.5 μM, 5 μM, 10 μM and 50 μM for TCBZSO. The experiments with ABZ were performed including concentrations of 0.025 μM, 0.05 μM, 0.1 μM, 0.3 μM and 0.5 μM and for ABZSO they included 1 μM, 6 μM, 12 μM, 25 μM and 50 μM.

[5] = tested on: zebrafish embryos; details: cited from earlier work

CCCSc1ccc2nc(NC(=O)OC)[nH]c2c1 [ABZ, methyl-5-(propylthio)-2-benzimidazole-carbamate]
postWEC LOAEC, in vitro literature [1]: 3.7 [16] μM
Crown-rump length ([2]; 0.4 μM): 3.5 ± 0.1 mm
Dysmorphogenic embryos ([2]; 0.4 μM): 0%
Morphological score ([2]; 0.4 μM): 38.9 ± 0.6
Somites number ([2]; 0.4 μM): 25.8 ± 1.9
Yolk sac circulation (median) ([2]; 0.4 μM): 3.0
Frequency of dysmorphogenesis: Branchial bars ([2]; 1.1 µM): 50%
Frequency of dysmorphogenesis: Heart ([2]; 1.1 µM): 12.5%
Frequency of dysmorphogenesis: Subcutaneous blisters ([2]; 1.1 µM): 50%
Frequency of dysmorphogenesis: Yolk sac ([2]; 1.1 µM): 25%
Crown-rump length ([2]; 1.1 μM): 3.2 ± 0.2 mm
Dysmorphogenic embryos ([2]; 1.1 μM): 50 ^* %
Morphological score ([2]; 1.1 μM): 30.8 ± 2.1
Somites number ([2]; 1.1 μM): 23.9 ± 1.1
Yolk sac circulation (median) ([2]; 1.1 μM): 3.0
Frequency of dysmorphogenesis: Branchial bars ([2]; 1.9 µM): 100%
Frequency of dysmorphogenesis: Caudal part ([2]; 1.9 µM): 37.5%
Frequency of dysmorphogenesis: Flexion ([2]; 1.9 µM): 12.5%
Frequency of dysmorphogenesis: Head ([2]; 1.9 µM): 62.5%
Frequency of dysmorphogenesis: Heart ([2]; 1.9 µM): 37.5%
Frequency of dysmorphogenesis: Subcutaneous blisters ([2]; 1.9 µM): 37.5%
Frequency of dysmorphogenesis: Yolk sac ([2]; 1.9 µM): 75%
Crown-rump length ([2]; 1.9 μM): 2.9 ± 0.4 mm
Dysmorphogenic embryos ([2]; 1.9 μM): 100 ^* %
Morphological score ([2]; 1.9 μM): 26.4 ± 5.2
Somites number ([2]; 1.9 μM): 21.9 ± 4.5
Yolk sac circulation (median) ([2]; 1.9 μM): 1.0 ^*
postWEC LOAEC [2]: 1.1 µM
Plasma concentrations at teratogenic doses ([3]; reviewed and transformed to μM by 13): 0.94 ([47]; reviewed and transformed to μM by [13])
Lethality ([4]; 0.025 μM): 7%
Dysmorphogenic embryos ([4]; 0.025 μM): 0%
Morphological score ([4]; 0.025 μM): 36.0 ± 0.0
Frequency of dysmorphogenesis: Cardiac oedema ([4]; 0.05 µM): 3.3%
Lethality ([4]; 0.05 μM): 0%
Dysmorphogenic embryos ([4]; 0.05 μM): 3.3%
Morphological score ([4]; 0.05 μM): 35.9 ± 0.2
Frequency of dysmorphogenesis: Cardiac oedema ([4]; 0.1 µM): 2.5%
Lethality ([4]; 0.1 μM): 0%
Dysmorphogenic embryos ([4]; 0.1 μM): 2.5%
Morphological score ([4]; 0.1 μM): 35.9 ± 0.2
Frequency of dysmorphogenesis: Cardiac oedema ([4]; 0.3 µM): 72%
Frequency of dysmorphogenesis: Developmental delay ([4]; 0.3 µM): 72%
Frequency of dysmorphogenesis: Eye pigmentation ([4]; 0.3 µM): 16%
Frequency of dysmorphogenesis: Head-body pigmentation ([4]; 0.3 µM): 40%
Frequency of dysmorphogenesis: Movement ([4]; 0.3 µM): 32%
Lethality ([4]; 0.3 μM): 17 ^* %
Dysmorphogenic embryos ([4]; 0.3 μM): 72 ^* %
Morphological score ([4]; 0.3 μM): 25.5 ± 2.1
Lethality ([4]; 0.5 μM): 100% and 100 ^* %
ZFET LOAEC dysmorphogenesis [4]: 0.3 µM
ZFET LOAEC lethality [4]: 0.3 µM
ZFET LOAEC, in vitro literature ([5]; ref 19, 20): 0.3 [19, 20] μM

CCC[S+]([O-])c1ccc2[nH]c(NC(=O)OC)nc2c1 (centres unmarked) [ABZSO, albendazole sulfoxide]
postWEC LOAEC, in vitro literature [1]: 17.7 [16] μM
Crown-rump length ([2]; 3.4 μM): 3.6 ± 0.2 mm
Morphological score ([2]; 3.4 μM): 38.5 ± 2.1
Somites number ([2]; 3.4 μM): 26.9 ± 1.6
Yolk sac circulation (median) ([2]; 3.4 μM): 3.0
Frequency of dysmorphogenesis: Branchial bars ([2]; 9 µM): 23.1%
Frequency of dysmorphogenesis: Caudal part ([2]; 9 µM): 7.7%
Frequency of dysmorphogenesis: Flexion ([2]; 9 µM): 7.7%
Frequency of dysmorphogenesis: Heart ([2]; 9 µM): 7.7%
Frequency of dysmorphogenesis: Subcutaneous blisters ([2]; 9 µM): 30.8%
Frequency of dysmorphogenesis: Yolk sac ([2]; 9 µM): 7.7%
Crown-rump length ([2]; 9 μM): 3.4 ± 0.3 mm
Dysmorphogenic embryos ([2]; 9 μM): 30.8 ^* %
Morphological score ([2]; 9 μM): 35.8 ± 5.2
Somites number ([2]; 9 μM): 25.0 ± 2.8
Yolk sac circulation (median) ([2]; 9 μM): 3.0
Frequency of dysmorphogenesis: Branchial bars ([2]; 12 µM): 10%
Frequency of dysmorphogenesis: Head ([2]; 12 µM): 40%
Frequency of dysmorphogenesis: Subcutaneous blisters ([2]; 12 µM): 40%
Crown-rump length ([2]; 12 μM): 3.6 ± 0.2 mm
Dysmorphogenic embryos ([2]; 12 μM): 40 ^* %
Morphological score ([2]; 12 μM): 38.6 ± 1.2
Somites number ([2]; 12 μM): 25.5 ± 2.0
Yolk sac circulation (median) ([2]; 12 μM): 3.0
Frequency of dysmorphogenesis: Branchial bars ([2]; 14 µM): 63.6%
Frequency of dysmorphogenesis: Caudal part ([2]; 14 µM): 36.4%
Frequency of dysmorphogenesis: Flexion ([2]; 14 µM): 9.1%
Frequency of dysmorphogenesis: Head ([2]; 14 µM): 36.4%
Frequency of dysmorphogenesis: Optic vesicles ([2]; 14 µM): 9.1%
Frequency of dysmorphogenesis: Otic vesicles ([2]; 14 µM): 36.4%
Frequency of dysmorphogenesis: Subcutaneous blisters ([2]; 14 µM): 54.5%
Frequency of dysmorphogenesis: Yolk sac ([2]; 14 µM): 18.2%
Crown-rump length ([2]; 14 μM): 3.4 ± 0.2 mm
Dysmorphogenic embryos ([2]; 14 μM): 72.7 ^* %
Morphological score ([2]; 14 μM): 29.7 ± 6.6
Somites number ([2]; 14 μM): 22.9 ± 1.6
Yolk sac circulation (median) ([2]; 14 μM): 2.0 ^*
Frequency of dysmorphogenesis: Branchial bars ([2]; 16 µM): 100%
Frequency of dysmorphogenesis: Caudal part ([2]; 16 µM): 72.7%
Frequency of dysmorphogenesis: Flexion ([2]; 16 µM): 63.6%
Frequency of dysmorphogenesis: Head ([2]; 16 µM): 72.7%
Frequency of dysmorphogenesis: Heart ([2]; 16 µM): 45.5%
Frequency of dysmorphogenesis: Limbs ([2]; 16 µM): 18.2%
Frequency of dysmorphogenesis: Optic vesicles ([2]; 16 µM): 27.3%
Frequency of dysmorphogenesis: Otic vesicles ([2]; 16 µM): 45.5%
Frequency of dysmorphogenesis: Subcutaneous blisters ([2]; 16 µM): 45.5%
Frequency of dysmorphogenesis: Yolk sac ([2]; 16 µM): 63.6%
Crown-rump length ([2]; 16 μM): 3.1 ± 0.6 mm
Dysmorphogenic embryos ([2]; 16 μM): 100 ^* %
Morphological score ([2]; 16 μM): 21.8 ± 6.7
Somites number ([2]; 16 μM): 19.3 ± 2.4
Yolk sac circulation (median) ([2]; 16 μM): 1.0 ^*
postWEC LOAEC [2]: 9 µM
Plasma concentrations at teratogenic doses ([3]; reviewed and transformed to μM by 16): 12.8 ([47]; reviewed and transformed to μM by [16])
Lethality ([4]; 1 μM): 0%
Dysmorphogenic embryos ([4]; 1 μM): 0%
Morphological score ([4]; 1 μM): 36.0 ± 0.0
Frequency of dysmorphogenesis: Cardiac oedema ([4]; 6µM): 3.3%
Lethality ([4]; 6 μM): 0%
Dysmorphogenic embryos ([4]; 6 μM): 3.3%
Morphological score ([4]; 6 μM): 35.7 ± 0.9
Frequency of dysmorphogenesis: Cardiac oedema ([4]; 12 µM): 10%
Lethality ([4]; 12 μM): 0%
Dysmorphogenic embryos ([4]; 12 μM): 10%
Morphological score ([4]; 12 μM): 35.5 ± 0.6
Frequency of dysmorphogenesis: Brain necrosis ([4]; 25µM): 100%
Frequency of dysmorphogenesis: Cardiac oedema ([4]; 25µM): 100%
Frequency of dysmorphogenesis: Developmental delay ([4]; 25µM): 100%
Frequency of dysmorphogenesis: Eye pigmentation ([4]; 25µM): 100%
Frequency of dysmorphogenesis: Head-body pigmentation ([4]; 25µM): 100%
Frequency of dysmorphogenesis: Movement ([4]; 25µM): 100%
Lethality ([4]; 25 μM): 13%
Dysmorphogenic embryos ([4]; 25 μM): 100% and 100 ^* %
Morphological score ([4]; 25 μM): 18.0 ± 0.0
Lethality ([4]; 50 μM): 100% and 100 ^* %
ZFET LOAEC dysmorphogenesis [4]: 25 µM
ZFET LOAEC lethality [4]: 50 µM
ZFET LOAEC, in vitro literature ([5]; ref 19): Non observed adverse effects
ZFET LOAEC, in vitro literature ([5]; ref 20): 6.8 µM

— publication PMC4368200, “Triclabendazole Sulfoxide Causes Stage-Dependent Embryolethality in Zebrafish and Mouse In Vitro” (PLoS ONE, 2015)
